Experimental data reported in patent US20160009686A1, “VEGFR3 INHIBITORS” (CANCER THERAPEUTICS CRC PTY LIMITED, priority 2012, published 2016).
Where two headings read alike, the source gives them in different places.

Biological target: VEGFR3 cytoplasmic domain (Homo sapiens, UniProt P35916)
Assay: VEGFR3 Biochemical Assay (AlphaScreen)
Conditions: GST-fusion enzyme, 500 μM ATP, 90 minutes at 30 degree Celsius (modified form in some cases: Hexa-His-fusion enzyme, 1 μM ATP)

Sequence of VEGFR3 cytoplasmic domain (P35916 798-1298 isoform P35916-1): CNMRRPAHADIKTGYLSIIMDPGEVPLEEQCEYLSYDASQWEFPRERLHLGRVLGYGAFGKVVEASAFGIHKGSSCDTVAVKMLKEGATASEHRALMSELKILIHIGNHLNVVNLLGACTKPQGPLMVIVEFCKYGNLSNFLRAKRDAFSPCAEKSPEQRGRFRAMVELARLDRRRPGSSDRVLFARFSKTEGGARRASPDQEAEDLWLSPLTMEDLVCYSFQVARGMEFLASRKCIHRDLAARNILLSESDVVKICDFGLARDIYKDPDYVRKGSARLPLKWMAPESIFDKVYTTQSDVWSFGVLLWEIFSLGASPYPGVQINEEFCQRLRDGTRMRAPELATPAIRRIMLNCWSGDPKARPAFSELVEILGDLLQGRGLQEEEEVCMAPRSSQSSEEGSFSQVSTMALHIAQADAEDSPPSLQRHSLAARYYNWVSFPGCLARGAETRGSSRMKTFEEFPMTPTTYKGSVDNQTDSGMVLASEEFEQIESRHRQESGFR

SMILES: Cc1cnc(Nc2cnn(C)c2)nc1CCc1ccccc1C(C)C(N)=O (single isomer, unassigned) [Compound 51-2A, 2-(2-(2-(5-methyl-2-((1-methyl-1H-pyrazol-4-yl)amino)pyrimidin-4-yl)ethyl)phenyl)propanamide]
- IC50 (read-out: IC50): 41 nM

SMILES: NC(=O)C1(c2ccccc2CCc2nc(Nc3cnn(CC(F)(F)F)c3)ncc2Cl)CC1 [Compound 29, 1-(2-(2-(5-Chloro-2-((1-(2,2,2-trifluoroethyl)-1H-pyrazol-4-yl)amino)pyrimidin-4-yl)ethyl)phenyl)cyclopropanecarboxamide]
- IC50 (read-out: IC50): 8 nM

SMILES: COc1ccc(Nc2ncc(C(F)(F)F)c(CCc3ccccc3C(C)C(N)=O)n2)cn1 (centres unmarked) [Compound 61, 2-(2-(2-(2-((6-Methoxypyridin-3-yl)amino)-5-(trifluoromethyl)pyrimidin-4-yl)ethyl)phenyl) propanamide]
- IC50 (read-out: IC50): 118 nM

SMILES: Cc1nn(C)cc1Nc1ncc(Cl)c(CCc2ccccc2C2(C(N)=O)CC2)n1 [Compound 26, 1-(2-(2-(5-Chloro-2-((1,3-dimethyl-1H-pyrazol-4-yl)amino)pyrimidin-4-yl)ethyl)phenyl)cyclopropanecarboxamide]
- IC50 (read-out: IC50): 12 nM

SMILES: CC(C(N)=O)c1ccccc1CCc1nc(Nc2ccnnc2)ncc1Cl (centres unmarked) [Compound 42, 2-(2-(2-(5-Chloro-2-(pyridazin-4-ylamino)pyrimidin-4-yl)ethyl)phenyl)propanamide]
- IC50 (read-out: IC50): 154 nM

SMILES: Cc1n[nH]cc1Nc1ncc(Cl)c(CCc2ccccc2C2(C(N)=O)CC2)n1 [Compound 25, 1-(2-(2-(5-Chloro-2-((3-methyl-1H-pyrazol-4-yl)amino)pyrimidin-4-yl)ethyl)phenyl)cyclopropanecarboxamide]
- IC50 (read-out: IC50): 7 nM

SMILES: COCCn1cc(Nc2ncc(Cl)c(CCc3ccccc3C3(C(N)=O)CC3)n2)cn1 [Compound 77]
- IC50 (read-out: IC50): 3 nM

SMILES: CC(C(N)=O)c1ccccc1CCc1nc(Nc2ccc(C3CCN(C)CC3)nc2)ncc1Cl (centres unmarked) [Compound 38, 2-(2-(2-(5-Chloro-2-((6-(1-methylpiperidin-4-yl)pyridin-3-yl)amino)pyrimidin-4-yl)ethyl)phenyl)propanamide]
- IC50 (read-out: IC50): 32 nM

SMILES: NC(=O)C1(c2cccc(CCc3nc(Nc4cnn(C5CCNCC5)c4)ncc3C(F)(F)F)c2)CC1 [Compound 53, 1-(3-(2-(2-((1-(Piperidin-4-yl)-1H-pyrazol-4-yl)amino)-5-(trifluoromethyl)pyrimidin-4-yl)ethyl)phenyl)cyclopropanecarboxamide]
- IC50 (read-out: IC50): 228 nM

SMILES: NC(=O)C1(c2ccccc2CCc2nc(Nc3ncco3)ncc2Cl)CC1 [Compound 11, 1-(2-(2-(5-Chloro-2-(oxazol-2-ylamino)pyrimidin-4-yl)ethyl)phenyl)cyclopropanecarboxamide]
- IC50 (read-out: IC50): 1300 nM

SMILES: Cc1cnc(Nc2cnn(C3CCN(C)CC3)c2)nc1CCc1ccccc1C1(C(N)=O)CC1 [Compound 48, 1-(2-(2-(5-Methyl-2-((1-(1-methylpiperidin-4-yl)-1H-pyrazol-4-yl)amino)pyrimidin-4-yl)ethyl)phenyl)cyclopropanecarboxamide]
- IC50 (read-out: IC50): 12 nM

SMILES: CC(C(N)=O)c1ccccc1CCc1nc(Nc2ccc(C3CCNCC3)nc2)ncc1C(F)(F)F (centres unmarked) [Compound 62, 2-(2-(2-(2-((6-(Piperidin-4-yl)pyridin-3-yl)amino)-5-(trifluoromethyl)pyrimidin-4-yl)ethyl)phenyl)propanamide]
- IC50 (read-out: IC50): 492 nM

SMILES: CC(C(N)=O)c1ccccc1CCc1nc(Nc2cncnc2)ncc1Cl (centres unmarked) [Compound 40, 2-(2-(2-(5-Chloro-2-(pyrimidin-5-ylamino)pyrimidin-4-yl)ethyl)phenyl) propanamide]
- IC50 (read-out: IC50): 160 nM

SMILES: NC(=O)C1(c2ccccc2CCc2nc(Nc3ccc(C4CCNCC4)cc3)ncc2C(F)(F)F)CCC1 [Compound 52, 1-(2-(2-(2-((4-(Piperidin-4-yl)phenyl)amino)-5-(trifluoromethyl)pyrimidin-4-yl)ethyl)phenyl)cyclobutanecarboxamide]
- IC50 (read-out: IC50): 23 nM

SMILES: CC(C(N)=O)c1ccccc1CCc1nc(Nc2ccc(C3CCNCC3)nc2)ncc1Cl (centres unmarked) [Compound 37, 2-(2-(2-(5-Chloro-2-((6-(piperidin-4-yl)pyridin-3-yl)amino)pyrimidin-4-yl)ethyl)phenyl)propanamide]
- IC50 (read-out: IC50): 31 nM

SMILES: CC(=O)NC(C)c1ccc(Nc2ncc(C(F)(F)F)c(CCc3ccccc3C3(C(N)=O)CC3)n2)cc1 (centres unmarked) [Compound 71, 1-(2-(2-(2-(4-(1-Acetamidoethyl)phenylamino)-5-(trifluoromethyl)pyrimidin-4-yl)ethyl)phenyl)cyclopropanecarboxamide]
- IC50 (read-out: IC50): 10 nM

SMILES: CC(=O)c1ccc(Nc2ncc(Cl)c(CCc3ccccc3C3(C(N)=O)CC3)n2)cn1 [Compound 32, 1-(2-(2-(2-((6-Acetylpyridin-3-yl)amino)-5-chloropyrimidin-4-yl)ethyl)phenyl)cyclopropanecarboxamide]
- IC50 (read-out: IC50): 44 nM

SMILES: NC(=O)C1(c2ccccc2CCc2nc(Nc3cnn(C4CCNCC4)c3)ncc2C(F)(F)F)CC1 [Compound 66, 1-(2-(2-(2-((1-(Piperidin-4-yl)-1H-pyrazol-4-yl)amino)-5-(trifluoromethyl)pyrimidin-4-yl)ethyl)phenyl)cyclopropanecarboxamide]
- IC50 (read-out: IC50): 7 nM

SMILES: Cc1ccc(Nc2ncc(Cl)c(CCc3ccccc3C(C)C(N)=O)n2)cn1 (centres unmarked) [Compound 41, 2-(2-(2-(5-chloro-2-(6-methylpyridin-3-ylamino)pyrimidin-4-yl)ethyl)phenyl) propanamide]
- IC50 (read-out: IC50): 45 nM

SMILES: N#Cc1ccc(Nc2ncc(Cl)c(CCc3ccccc3C3(C(N)=O)CC3)n2)cn1 [Compound 31, 1-(2-(2-(5-Chloro-2-((6-cyanopyridin-3-yl)amino)pyrimidin-4-yl)ethyl)phenyl)cyclopropanecarboxamide]
- IC50 (read-out: IC50): 48 nM

SMILES: Cc1cnc(Nc2cnn(C)c2)nc1CCc1ccccc1C1(C(N)=O)CC1 [Compound 47, 1-(2-(2-(5-Methyl-2-((1-methyl-1H-pyrazol-4-yl)amino)pyrimidin-4-yl)ethyl)phenyl)cyclopropanecarboxamide]
- IC50 (read-out: IC50): 5 nM

SMILES: CC(C(N)=O)c1ccccc1CCc1nc(Nc2ccc(C3CCN(C)CC3)nc2)ncc1C(F)(F)F (centres unmarked) [Compound 63, 2-(2-(2-(2-((6-(1-Methylpiperidin-4-yl)pyridin-3-yl)amino)-5-(trifluoromethyl)pyrimidin-4-yl)ethyl)phenyl)propanamide]
- IC50 (read-out: IC50): 28 nM

SMILES: CN1CCC(c2ccc(Nc3ncc(C(F)(F)F)c(CCc4ccccc4C4(C(N)=O)CC4)n3)cn2)CC1 [Compound 69, 1-(2-(2-(2-((6-(1-Methylpiperidin-4-yl)pyridin-3-yl)amino)-5-(trifluoromethyl)pyrimidin-4-yl)ethyl)phenyl)cyclopropanecarboxamide]
- IC50 (read-out: IC50): 63 nM

SMILES: CC(N)c1ccc(Nc2ncc(Cl)c(CCc3ccccc3C3(C(N)=O)CC3)n2)cn1 (centres unmarked) [Compound 33, 1-(2-(2-(2-((6-(1-Aminoethyl)pyridin-3-yl)amino)-5-chloropyrimidin-4-yl)ethyl)phenyl)cyclopropanecarboxamide]
- IC50 (read-out: IC50): 60 nM

SMILES: CC(C(N)=O)c1ccccc1CCc1nc(Nc2cnn(C3CCNCC3)c2)ncc1Cl (centres unmarked) [Compound 43, 2-(2-(2-(5-Chloro-2-(1-(piperidin-4-yl)-1H-pyrazol-4-ylamino)pyrimidin-4-yl)ethyl)phenyl) propanamide]
- IC50 (read-out: IC50): 12 nM

SMILES: Cn1cc(Nc2ncc(C(F)(F)F)c(CCc3ccccc3C3(C(N)=O)CC3)n2)cn1 [Compound 65, 1-(2-(2-(2-((1-Methyl-1H-pyrazol-4-yl)amino)-5-(trifluoromethyl)pyrimidin-4-yl)ethyl)phenyl)cyclopropanecarboxamide]
- IC50 (read-out: IC50): 3 nM

SMILES: NC(=O)C1(c2ccccc2CCc2nc(Nc3ccccc3)ncc2Cl)CC1 [Compound 23, 1-(2-(2-(5-Chloro-2-(phenylamino)pyrimidin-4-yl)ethyl)phenyl)cyclopropanecarboxamide]
- IC50 (IC50 (nM)): 11 nM

SMILES: CC(N)c1ccc(Nc2ncc(C(F)(F)F)c(CCc3ccccc3C3(C(N)=O)CC3)n2)cc1 (centres unmarked) [Compound 70A, 1-(2-(2-(2-(4-(1-Aminoethyl)phenylamino)-5-(trifluoromethyl)pyrimidin-4-yl)ethyl)phenyl)cyclopropanecarboxamide]
- IC50 (read-out: IC50): 22 nM

SMILES: CC(C(N)=O)c1ccccc1CCc1nc(Nc2cn[nH]c2)ncc1C(F)(F)F (centres unmarked) [Compound 54, 2-(2-(2-(2-((1H-Pyrazol-4-yl)amino)-5-(trifluoromethyl)pyrimidin-4-yl)ethyl)phenyl)propanamide]
- IC50 (read-out: IC50): 17 nM

SMILES: NC(=O)C1(c2ccccc2CCc2nc(Nc3ccnnc3)ncc2Cl)CC1 [Compound 22, 1-(2-(2-(5-Chloro-2-(pyridazin-4-ylamino)pyrimidin-4-yl)ethyl)phenyl)cyclopropanecarboxamide]
- IC50 (read-out: IC50): 20 nM

SMILES: Cc1cnc(Nc2ccc(C(C)N)cc2)nc1CCc1ccccc1C1(C(N)=O)CC1 (centres unmarked) [Compound 50, 1-(2-(2-(2-((4-(1-Aminoethyl)phenyl)amino)-5-methylpyrimidin-4-yl)ethyl)phenyl)cyclopropanecarboxamide]
- IC50 (read-out: IC50): 46 nM

SMILES: CC(C)n1cc(Nc2ncc(Cl)c(CCc3ccccc3C3(C(N)=O)CC3)n2)cn1 [Compound 30, 1-(2-(2-(5-Chloro-2-((1-isopropyl-1H-pyrazol-4-yl)amino)pyrimidin-4-yl)ethyl)phenyl)cyclopropanecarboxamide]
- IC50 (read-out: IC50): 4 nM

SMILES: Cc1cnc(Nc2cn[nH]c2)nc1CCc1ccccc1C1(C(N)=O)CC1 [Compound 46, 1-(2-(2-(2-((1H-Pyrazol-4-yl)amino)-5-methylpyrimidin-4-yl)ethyl)phenyl)cyclopropanecarboxamide]
- IC50 (read-out: IC50): 13 nM

SMILES: CN1CCC(n2cc(Nc3ncc(C(F)(F)F)c(CCc4ccccc4C4(C(N)=O)CC4)n3)cn2)CC1 [Compound 67, 1-(2-(2-(2-((1-(1-Methylpiperidin-4-yl)-1H-pyrazol-4-yl)amino)-5-(trifluoromethyl)pyrimidin-4-yl)ethyl)phenyl)cyclopropanecarboxamide]
- IC50 (read-out: IC50): 7 nM

SMILES: Cc1cnc(Nc2ccc(C3CCN(C)CC3)nc2)nc1CCc1ccccc1C1(C(N)=O)CC1 [Compound 49, 1-(2-(2-(5-Methyl-2-((6-(1-methylpiperidin-4-yl)pyridin-3-yl)amino)pyrimidin-4-yl)ethyl)phenyl)cyclopropanecarboxamide]
- IC50 (read-out: IC50): 23 nM
